The values that follow come from patent publication US8895717B2, “Delivery of siRNA by neutral lipid compositions” (The Board of Regents of the University of Texas System, priority 2005, dated 2014).

Molecules are shown by their SMILES.

In experiment [1] the test system is SKOV3 cells. Nature of the experiment: Cytotoxicity assay (MTT), SKOV3. It counts as cell-based, human. As to conditions: Homo sapiens, SK-OV-3; SKOV3, 96 hours. As for the experimental part: (§1) The medium was exchanged after 48 hours with increasing concentrations of docetaxel (obtained from Aventis Pharma, Bridgewater, N.J.) dissolved in ethanol (final concentration range, 0.1-10,000 nmol/L prepared in medium) or cisplatin (purchased from LKT Laboratories, Inc., St. Paul, Minn.) dissolved in water. After a 96-hour incubation, 50 μL of 0.15% 3-(4,5-dimethylthiazol-2-yl)-2,5-diphenyltetrazolium bromide was added to each well and incubated for 2 hours. The supernatant was removed, and cells were dissolved in 100 μL DMSO. The absorbance at 570 nm was recorded using a FALCON microplate reader (Becton Dickinson Labware, Bedford, Mass.), and cell survival expressed as a percent increase or decrease above control conditions, after subtracting blank A570 readings. The IC50 concentration was determined by finding the A570 reading midpoint between maximal and minimal readings and finding the chemotherapy concentration that intersects the growth curve at that A570 reading.

The subject of experiment [2] is HeyA8 cells. Nature of the experiment: Cytotoxicity assay (MTT), HeyA8. The format is cell-based, human. As to conditions: Homo sapiens, HEY A8; HeyA8, 96 hours. The procedure:
as §1

For the next experiment, the system named is SKOV3-TR cells. Nature of the experiment: Cytotoxicity assay (MTT), SKOV3-TR. It counts as cell-based, human. As for the experimental part:
as §1

The next experiment relates to HeyA8-MDR cells. Nature of the experiment: Cytotoxicity assay (MTT), HeyA8-MDR. The format is cell-based, human. The procedure: as §1
The test system of a further experiment is caspase-3. Nature of the experiment: Caspase-3 activity in ovarian cancer cells (DEVD-AFC). It counts as cell-based, human. As to conditions: for increase in caspase-3 activity: 24 hours. The procedure:
Ovarian cancer cells (1×10^6) in culture (six-well plates) were treated with or without docetaxel at the cell line specific IC50 or IC90 concentration for 24 hours. After washing with PBS, cells were lysed in 50 μL of cell lysis buffer provided. Caspase-3, caspase-8, and caspase-9 activities were measured with the appropriate apoptosis detection kit (BD Biosciences/Clontech, Palo Alto, Calif.), using substrate DEVD-AFC for caspase-3, IETD-AFC for caspase-8, and LEHD-AMC for caspase-9.

The test system of a further experiment is FAK. The experiment can be described thus: FAK cleavage in response to docetaxel, Western blot. It counts as cell-based, human. The procedure: Cells were lysed in modified RIPA buffer (50 mM Tris, 150 mM NaCl, 1% triton, 0.5% deoxycholate plus 25 µg/ml leupeptin, 10 µg/ml aprotinin, 2 mM EDTA, and 1 mM sodium orthovanadate (Sigma Chemical Co, St. Louis, Mo.) as previously described (Sood et al., 2004; Sood et al., 2002). A sample was removed from culture dishes by cell scraping and centrifuged at 12,500 rpm for 30 min. The […] protein concentration of the supernatant was determined using a bicinchoninic acid protein assay reagent kit (Pierce, Rockford, Ill.), and whole cell lysates were analyzed by 7.5% SDS-PAGE. Samples were then transferred to nitrocellulose membrane by semi-dry transfer (BioRad Laboratories, Hercules, Calif.). Membranes were blocked with 5% nonfat milk, and incubated with 0.25 μg/mL anti-FAK antibody (Biosource, International Camarillo, Calif.) for 1 h at room temperature. Antibody was detected with 0.167 μg/mL HRP-conjugated anti-mouse secondary antibody (The Jackson Laboratory, Bar Harbor, Me.) and developed with an enhanced chemiluminescence detection kit (Pierce). Equal loading was confirmed by detection of β-actin (0.1 μg/ml, anti-β-actin antibody, Sigma Chemical). Densitometric analysis was performed using the Scion Imaging software (Scion Corporation, Frederick, Md.).
It has been reported that FAK may be cleaved by caspase-3 (Gervais et al., 1998; Sasaki et al., 2002; Carragher et al., 2001). Based on observations regarding modulation of caspase levels by docetaxel in ovarian cancer cells, FAK cleavage after treatment with docetaxel was examined and whether there are differences in extent of FAK cleavage between the taxane-sensitive and taxane-resistant cell lines. In SKOV3 cells, FAK was cleaved after 48 and 72 hours of exposure to docetaxel (FIG. 7A). The 71-kDa fragments increased after treatment with docetaxel, whereas the 125-kDa fragments decreased. […] To study the dependence of FAK cleavage on caspase-3, the effect of DEVDfmk (caspase-3 inhibitor) was examined.

In experiment [3] the test system is SKOV3 cells. The experiment can be described thus: TUNEL apoptosis assay, SKOV3. It counts as cell-based, human. The procedure: (§2) Terminal deoxynucleotidyl transferase-mediated nick end labeling-positive cells were detected using Dead End Fluorometric terminal deoxynucleotidyl transferase-mediated nick end labeling system (APO-DIRECT, BD Biosciences/PharMingen, San Diego, Calif.) according to the manufacturer's instructions. […] Cells were fixed with 4% paraformaldehyde solution for 25 minutes on ice. Intracellular DNA fragments were then labeled by exposing cells to fluorescein-12-dUTP, treated with propidium iodide and RNaseA solution, and analyzed by flow cytometry (EPICS XL, Beckman Coulter, Miami, Fla.). The percentages of apoptotic cells were averaged over three consecutive experiments.

The test system of experiment [4] is HeyA8 cells. The experiment can be described thus: TUNEL apoptosis assay, HeyA8. The format is cell-based, human. As for the experimental part: as §2
The test system of experiment [5] is SKOV3-TR and HeyA8-MDR cells. Nature of the experiment: TUNEL apoptosis assay, taxane-resistant cells. It counts as cell-based, human. As for the experimental part: Terminal deoxynucleotidyl transferase-mediated nick end labeling-positive cells were detected using Dead End Fluorometric terminal deoxynucleotidyl transferase-mediated nick end labeling system (APO-DIRECT, BD Biosciences/PharMingen, San Diego, Calif.) according to the manufacturer's instructions. Briefly, ovarian cancer cells in culture were treated with varying concentrations of docetaxel and harvested after 12, 24, 48, or 96 hours. Cells were fixed with 4% paraformaldehyde solution for 25 minutes on ice. Intracellular DNA fragments were then labeled by exposing cells to fluorescein-12-dUTP, treated with propidium iodide and RNaseA solution, and analyzed by flow cytometry (EPICS XL, Beckman Coulter, Miami, Fla.). The percentages of apoptotic cells were averaged over three consecutive experiments.

In the next experiment the test system is VEGF mRNA. Nature of the experiment: VEGF mRNA expression, real-time RT-PCR. It counts as cell-based, human. As for the experimental part:
Total RNA was extracted (Trizol reagent; Invitrogen Co, Carlsbad, Calif.) and reverse transcribed using an oligo(dT) primer and M-MLV reverse transcriptase (Life Technologies, Inc., Rockville, Md.) in a final reaction volume of 20 μl (60 min at 42° C.). PCR amplifications are performed using the ABI Prism 7700 Sequence Detection System with TaqMan One-Step RT-PCR Master Mix Reagent kit (PE Applied Biosystems, Foster City, Calif.). Quantitative values are obtained from the Ct value, at which the increase in fluorescent signal associated with exponential growth of PCR products starts to be detected by the laser detector of the Sequence Detection System, using the analysis software according to the manufacturer's instructions (each sample is normalized on the basis of its I8S content). The VEGF primers were obtained from Applied Biosystems (Item number HS00173626-ml). βAR expression was examined with semi-quantitative RT-PCR using the following primers: βAR (forward, 5′-[…]-3′ (SEQ ID NO:13), reverse, 5′-[…]-3′) (SEQ ID NO:14); β2AR (forward, 5′-[…]-3′ (SEQ ID NO:15), reverse, 5′-[…]-3′) (SEQ ID NO:16).

For the next experiment, the system named is A2780 and RMG-II cells. Nature of the experiment: Intracellular cAMP in βAR negative cell lines. It counts as cell-based, human.
Experiment [6] concerns HeyA8 cells. The experiment can be described thus: Daily β-agonist treatment of mice bearing HeyA8 ovarian cancer cells. It counts as in vivo, nude mice. As to conditions: 10 mg/kg daily. The source says:
Mice habituated to vivarium conditions for 1 week before the initiation of stress procedures. A restraint-stress procedure was used based on previous studies (Sheridan et al., 1991), substituting a novel Mouse Restraint System (FIG. 15A) for conical centrifuge tubes. In this system, up to 10 mice are placed in individual slots, and each slot can be adjusted to restrain the animal for a desired length of time. In the present study, restraint stress began between 8 a.m. and 10 a.m., and lasted for 2-6 hours for up to 21 days. The ovarian cancer cell lines were harvested from subconfluent cultures by a brief exposure to 0.25% trypsin and 0.02% EDTA, resuspended in Hank's balanced salt solution (HBSS), and tested for >95% viability by trypan blue dye exclusion. The HeyA8 cells were injected i.p. into mice at a concentration of 2.5×10^5 cells while the other cell lines were injected at 1.0×10^6 cells per 0.2 ml HBSS, ten days after starting stress in all groups. Animals were necropsied 21 days after tumor injection, and tumors in the peritoneal cavity were excised, weighed, and documented for location. Immunohistochemistry and H&E staining procedures were carried out on formalin-fixed paraffin-embedded tumors.
Starting 4 days after tumor cell injection, mice bearing HeyA8 ovarian cancer cells (n=10 per group) were treated daily with either 1) PBS; 2) isoproterenol (non-specific β-agonist) 10 mg/kg; 3) terbutaline (β2-agonist) 5 mg/kg; 4) xamoterol (β1-agonist) 1 mg/kg; or 5) isoproterenol plus 2 mg/kg of the non-specific β-antagonist propranolol.

In another experiment the test system is HeyA8 tumor samples. The experiment can be described thus: Mean vessel density (CD31) in HeyA8 tumor samples. As to conditions: daily agonist treatment. It counts as in vivo, nude mice. As for the experimental part: Paraffin sections were stained for CD31 (1:800 dilution, Pharmingen, San Jose, Calif.), MMP-2 (1:500 dilution, Chemicon, Temecula, Calif.), MMP-9 (1:200 dilution, Calbiochem, San Diego, Calif.), VEGF (1:500 dilution, Santa Cruz Biotechnology, Santa Cruz, Calif.) and bFGF (1:1,000 dilution, Sigma, St. Louis, Mo.) at 4° C. Samples were stained with a biotinylated goat anti-rabbit antibody for 30 min (prediluted), followed by strepavidin horseradish peroxidase for 30 min (1:300 dilution), and visualized in 3,3′-diaminobenzidine (DAB) for 5-10 min.
To quantify MVD, 10 random 0.159 mm^2 fields at 100× magnification were examined for each tumor, and the microvessels within those fields were counted. A single microvessel was defined as a discrete cluster of cells stained CD31(+), and the presence of a lumen was required for scoring as a microvessel.

Turning to `CC(=O)O[C@@]12CO[C@@H]1C[C@H](O)[C@@]1(C)C(=O)[C@H](O)C3=C(C)[C@@H](OC(=O)[C@H](O)[C@@H](NC(=O)OC(C)(C)C)c4ccccc4)C[C@@](O)([C@@H](OC(=O)c4ccccc4)[C@H]21)C3(C)C` [docetaxel], the IC50 came out at 6.2 nM with SKOV3 cells [1]; 1 nM in the experiment with HeyA8 cells [2]; 225 nM in the experiment on SKOV3-TR cells (Homo sapiens, SKOV3TR, SKOV3-TR, 96 hours); 450 nM in the experiment with HeyA8-MDR cells (Homo sapiens, HeyA8-MDR, 96 hours). The “fold more resistant to docetaxel” value with SKOV3-TR cells (SKOV3-TR versus SKOV3) is given as 36 fold; with HeyA8-MDR cells (HeyA8-MDR versus HeyA8) it was 300 fold. In addition, the “increase in caspase-3 activity” value in the experiment on caspase-3 (HeyA8, IC50 level of docetaxel) is on record as 1.8 fold; in the experiment with caspase-3 (HeyA8, IC90 level of docetaxel), 2.5 fold; in the experiment on caspase-3 (SKOV3, IC50 level of docetaxel), 2.8 fold; in the experiment on caspase-3 (SKOV3, IC90 level of docetaxel), 5.4 fold. Besides, in the experiment on caspase-3 (resistant SKOV3-TR and HeyA8-MDR, IC50 and IC90 levels for sensitive lines, caspase-3, -8, -9), the “induction of caspase activity” value was “not able to induce caspase activity”. Moreover, the FAK cleavage result is listed as “cleaved” in the experiment on FAK (SKOV3, 48 and 72 hours); “did not show any increase in FAK cleavage products” in the experiment on FAK (SKOV3-TR and HeyA8-MDR). For the same compound, the apoptosis entry in the experiment on SKOV3 cells [3] (SKOV3, IC20 level of docetaxel, FAK siRNA 48 hours before) is on record as “about 41%”; with HeyA8 cells [4] (HeyA8, IC20 level of docetaxel, FAK siRNA 48 hours before) it was ~42%; in [5] (FAK siRNA with or without docetaxel), “neither agent alone induced much apoptosis”. Further, the “proportion of apoptotic cells” value in the experiment on SKOV3 cells [3] (SKOV3, docetaxel 72 hours without or with DEVD-fmk) was determined as 72%; with SKOV3 cells [3] (SKOV3, docetaxel 96 hours), 84%; in the experiment on HeyA8 cells [4] (HeyA8, docetaxel 72 hours without or with DEVD-fmk), 56%; in the experiment on HeyA8 cells [4] (HeyA8, docetaxel 96 hours), 66%. In [5] (docetaxel with or without DEVD-fmk), the level of apoptosis entry is given as “remained low”.

As for `NC[C@H](O)c1ccc(O)c(O)c1` [norepinephrine], in the experiment with VEGF mRNA (SKOV3ip1, peak 1.5 hours following treatment), the “increase in VEGF mRNA expression” value turned out to be 8.4 fold. Besides, in the experiment on VEGF mRNA (βAR-negative A2780 cells), the VEGF expression result is “no increase in VEGF expression”. Besides, the “intracellular cAMP levels after stimulation” value in the experiment on A2780 and RMG-II cells was “neither of the βAR negative cell lines showed an increase in intracellular cAMP levels”.

Turning to `CC(C)NCC(O)c1ccc(O)c(O)c1` (centres unmarked) [isoproterenol], in the experiment with HeyA8 cells [6], the “increase in average tumor weight compared to control” value is given as 266% and the “increase in mean number of tumor nodules compared to control” value turned out to be 341%. The MVD counts result in the experiment on HeyA8 tumor samples is “significantly higher MVD counts compared to controls”. In addition, the “effect on VEGF mRNA” value with VEGF mRNA (SKOV3ip1, forskolin 1 μM, db-cAMP 1 mM) is given as “mimicked”. Also, in the experiment on A2780 and RMG-II cells, the “intracellular cAMP levels after stimulation” value is recorded as “neither of the βAR negative cell lines showed an increase in intracellular cAMP levels”.
